Here are results for 18 compounds from article PMC10114720.

Data set [1] in a line: PDMS sheets cleaned by Soxhlet with ethyl acetate; batch shaking method with a mixture of all chemicals at several PDMS-mass to water-volume ratios and spiked levels; vials shaken on an orbital shaker at room temperature in the dark, sampled at two equilibration times; PDMS extracts and water quantified by LC-HRMS (Orbitrap); D from the slope of C_PDMS on C_w or their ratio; value is the mean over that pH's experiments (individual experiments in the SI's concentrations table), sd is the table's stdev. The settings on record: PDMS (polydimethylsiloxane silicone sheet), phosphate buffer at three target pH values (the paper's methods).

Data set [2] is described as follows: neutral chemical: log K is the mean of log D over all measurements at the three pH values (D shown independent of pH, paired t-test); sd is the table's stddev. PDMS sheets cleaned by Soxhlet with ethyl acetate; batch shaking method with a mixture of all chemicals at several PDMS-mass to water-volume ratios and spiked levels; vials shaken on an orbital shaker at room temperature in the dark, sampled at two equilibration times; PDMS extracts and water quantified by LC-HRMS (Orbitrap); D from the slope of C_PDMS on C_w or their ratio. The conditions noted are these: PDMS (polydimethylsiloxane silicone sheet); phosphate buffer at three target pH values (the paper's methods).

As to `CC(C)(C)NC(=O)[C@H]1CC[C@H]2[C@@H]3CC[C@H]4NC(=O)C=C[C@]4(C)[C@H]3CC[C@]12C`, the “log D PDMS/w (apparent distribution ratio at the stated pH)” value in data set [1] (pH 3) is 2.64 log units; D and K as the pape; in data set [1] (pH 7.4), 2.691 log units; D and K as the pape; in data set [1] (pH 11.5), 2.582 log units; D and K as the pape. In addition, in data set [2], the “log K PDMS/w (neutral species)” value was 2.638 log units; D and K as the pape.

Regarding `CC=CC(=O)N(CC)c1ccccc1C` (mixture of isomers), the “log D PDMS/w (apparent distribution ratio at the stated pH)” value in data set [1] (pH 3) is 2.104 log units; D and K as the pape; in data set [1] (pH 7.4) it was 2.038 log units; D and K as the pape; in data set [1] (pH 11.5), 2.025 log units; D and K as the pape. Also, the “log K PDMS/w (neutral species)” value in data set [2] is 2.056 log units; D and K as the pape.

`COC(=O)C(c1ccccc1Cl)N1CCc2sccc2C1` (centres unmarked): the “log D PDMS/w (apparent distribution ratio at the stated pH)” value in data set [1] (pH 3) was 1.25 log units; D and K as the pape; in data set [1] (pH 7.4), -0.5267 log units; D and K as the pape. The “log K PDMS/w (neutral species)” value in data set [2] was 0.9169 log units; D and K as the pape.

Regarding `[O-][n+]1cccc2ccccc21`, the “log D PDMS/w (apparent distribution ratio at the stated pH)” value in data set [1] (pH 3) is 1.066 log units; D and K as the pape; in data set [1] (pH 7.4) it was 1.11 log units; D and K as the pape; in data set [1] (pH 11.5) it was 1.203 log units; D and K as the pape. In addition, the “log K PDMS/w (neutral species)” value in data set [2] was 1.126 log units; D and K as the pape.

`N#Cc1nn(-c2c(Cl)cc(C(F)(F)F)cc2Cl)c(N)c1S(=O)(=O)C(F)(F)F`: the “log D PDMS/w (apparent distribution ratio at the stated pH)” value in data set [1] (pH 3) is 2.417 log units; D and K as the pape; in data set [1] (pH 7.4) it was 2.376 log units; D and K as the pape; in data set [1] (pH 11.5) it was 2.192 log units; D and K as the pape. In data set [2], the “log K PDMS/w (neutral species)” value is 2.329 log units; D and K as the pape.

As to `N#Cc1nn(-c2c(Cl)cc(C(F)(F)F)cc2Cl)c(N)c1C(F)(F)F`, the “log D PDMS/w (apparent distribution ratio at the stated pH)” value is 1.946 log units; D and K as the pape in data set [1] (pH 3); 1.927 log units; D and K as the pape in data set [1] (pH 7.4); 1.883 log units; D and K as the pape in data set [1] (pH 11.5). Further, in data set [2], the “log K PDMS/w (neutral species)” value is 1.919 log units; D and K as the pape.

For the compound `Cc1c(C(C)C)c(=O)n(-c2ccccc2)n1C`, the “log D PDMS/w (apparent distribution ratio at the stated pH)” value was 1.579 log units; D and K as the pape in data set [1] (pH 3); 1.554 log units; D and K as the pape in data set [1] (pH 7.4); 1.65 log units; D and K as the pape in data set [1] (pH 11.5). Further, the “log K PDMS/w (neutral species)” value in data set [2] is 1.593 log units; D and K as the pape.

As to `CCCCOCCOCCOCc1cc2c(cc1CCC)OCO2`, the “log D PDMS/w (apparent distribution ratio at the stated pH)” value in data set [1] (pH 3) was 3.728 log units; D and K as the pape; in data set [1] (pH 7.4), 3.685 log units; D and K as the pape; in data set [1] (pH 11.5) it was 3.574 log units; D and K as the pape. Besides, in data set [2], the “log K PDMS/w (neutral species)” value was 3.661 log units; D and K as the pape.

`Cc1ccc(C=C2C(=O)C3(C)CCC2C3(C)C)cc1` (centres unmarked): the “log D PDMS/w (apparent distribution ratio at the stated pH)” value in data set [1] (pH 3) is 3.9 log units; D and K as the pape; in data set [1] (pH 7.4), 3.912 log units; D and K as the pape; in data set [1] (pH 11.5) it was 3.742 log units; D and K as the pape. The “log K PDMS/w (neutral species)” value in data set [2] is 3.848 log units; D and K as the pape.

As to `CN(C)C(=O)Nc1ccccc1`, the “log D PDMS/w (apparent distribution ratio at the stated pH)” value is 0.45 log units; D and K as the pape in data set [1] (pH 3); 0.473 log units; D and K as the pape in data set [1] (pH 7.4); 0.443 log units; D and K as the pape in data set [1] (pH 11.5). For the same compound, in data set [2], the “log K PDMS/w (neutral species)” value is 0.4555 log units; D and K as the pape.

With `CC(C)Nc1nc(N)nc(Cl)n1`, the “log D PDMS/w (apparent distribution ratio at the stated pH)” value in data set [1] (pH 3) is 0.418 log units; D and K as the pape; in data set [1] (pH 7.4) it was 0.4125 log units; D and K as the pape; in data set [1] (pH 11.5), 0.411 log units; D and K as the pape. Besides, in data set [2], the “log K PDMS/w (neutral species)” value is 0.4139 log units; D and K as the pape.

For `CCC(C(N)=O)(C(N)=O)c1ccccc1`, the “log D PDMS/w (apparent distribution ratio at the stated pH)” value was -0.586 log units; D and K as the pape in data set [1] (pH 3); -0.585 log units; D and K as the pape in data set [1] (pH 7.4); -0.5033 log units; D and K as the pape in data set [1] (pH 11.5). Moreover, the “log K PDMS/w (neutral species)” value in data set [2] was -0.5565 log units; D and K as the pape.

As to `COCCOCCOCCOCCOC`, the “log D PDMS/w (apparent distribution ratio at the stated pH)” value in data set [1] (pH 3) was 0.372 log units; D and K as the pape; in data set [1] (pH 7.4), 0.424 log units; D and K as the pape; in data set [1] (pH 11.5) it was 0.53 log units; D and K as the pape. Besides, the “log K PDMS/w (neutral species)” value in data set [2] was 0.442 log units; D and K as the pape.

For the compound `CCOC(=O)C(C)(C)Oc1ccc(Cl)cc1`, the “log D PDMS/w (apparent distribution ratio at the stated pH)” value in data set [1] (pH 3) is 1.764 log units; D and K as the pape; in data set [1] (pH 7.4) it was 1.684 log units; D and K as the pape; in data set [1] (pH 11.5), 1.69 log units; D and K as the pape. Besides, the “log K PDMS/w (neutral species)” value in data set [2] was 1.711 log units; D and K as the pape.

Consider `O=C1CC2(CCCCC2)CN1`, for which the “log D PDMS/w (apparent distribution ratio at the stated pH)” value is 1.311 log units; D and K as the pape in data set [1] (pH 3); 1.249 log units; D and K as the pape in data set [1] (pH 7.4); 1.271 log units; D and K as the pape in data set [1] (pH 11.5). In addition, the “log K PDMS/w (neutral species)” value in data set [2] was 1.277 log units; D and K as the pape.

For the compound `CC(C)OC(=O)C(C)(C)Oc1ccc(C(=O)c2ccc(Cl)cc2)cc1`, the “log D PDMS/w (apparent distribution ratio at the stated pH)” value in data set [1] (pH 3) was 4.526 log units; D and K as the pape; in data set [1] (pH 7.4), 4.273 log units; D and K as the pape; in data set [1] (pH 11.5), 4.425 log units; D and K as the pape. In addition, the “log K PDMS/w (neutral species)” value in data set [2] is 4.415 log units; D and K as the pape.

Take `CCNc1nc(N)nc(Cl)n1`: the “log D PDMS/w (apparent distribution ratio at the stated pH)” value in data set [1] (pH 3) is 0.21 log units; D and K as the pape; in data set [1] (pH 7.4), 0.2883 log units; D and K as the pape; in data set [1] (pH 11.5), 0.09 log units; D and K as the pape. In addition, the “log K PDMS/w (neutral species)” value in data set [2] is 0.1961 log units; D and K as the pape.

For the compound `CCCCCCCCCCCC(=O)NCC(C)O` (centres unmarked), the “log D PDMS/w (apparent distribution ratio at the stated pH)” value is 3.188 log units; D and K as the pape in data set [1] (pH 3); 3.329 log units; D and K as the pape in data set [1] (pH 7.4); 3.181 log units; D and K as the pape in data set [1] (pH 11.5). Also, the “log K PDMS/w (neutral species)” value in data set [2] is 3.231 log units; D and K as the pape.
